Reference: US9446039B2, “Aminoheteroaryl compounds as MTH1 inhibitors” (CEMM—FORSCHUNGSZENTRUM FÜR MOLEKULARE MEDIZIN GMBH, priority 2012, dated 2016)

How the values were obtained:
Assay type in all cases: binding
[1] = target: T1, SW480 colon carcinoma cells lysate proteins (Homo sapiens, UniProt O00232); conditions: PreyGene PSMD12
T1 sequence (O00232 1-456): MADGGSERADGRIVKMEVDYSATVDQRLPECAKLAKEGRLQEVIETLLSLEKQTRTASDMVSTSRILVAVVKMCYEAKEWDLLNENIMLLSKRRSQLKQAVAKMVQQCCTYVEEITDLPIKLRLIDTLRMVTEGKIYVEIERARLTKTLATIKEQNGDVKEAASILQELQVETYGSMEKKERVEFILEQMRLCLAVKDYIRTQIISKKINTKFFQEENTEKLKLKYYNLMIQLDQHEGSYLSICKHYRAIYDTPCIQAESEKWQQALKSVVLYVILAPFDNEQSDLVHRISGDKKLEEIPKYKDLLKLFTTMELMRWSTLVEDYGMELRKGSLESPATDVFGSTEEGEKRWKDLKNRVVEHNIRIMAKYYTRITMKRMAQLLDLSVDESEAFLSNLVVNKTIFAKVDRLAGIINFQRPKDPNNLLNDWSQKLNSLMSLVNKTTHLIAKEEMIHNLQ

[2] = target: SW480 colon carcinoma cells lysate proteins (Homo sapiens, UniProt P07237); conditions: PreyGene P4HB
[3] = target: T2, SW480 colon carcinoma cells lysate proteins (Homo sapiens, UniProt P11586); conditions: PreyGene MTHFD1
T2 sequence (P11586 1-935): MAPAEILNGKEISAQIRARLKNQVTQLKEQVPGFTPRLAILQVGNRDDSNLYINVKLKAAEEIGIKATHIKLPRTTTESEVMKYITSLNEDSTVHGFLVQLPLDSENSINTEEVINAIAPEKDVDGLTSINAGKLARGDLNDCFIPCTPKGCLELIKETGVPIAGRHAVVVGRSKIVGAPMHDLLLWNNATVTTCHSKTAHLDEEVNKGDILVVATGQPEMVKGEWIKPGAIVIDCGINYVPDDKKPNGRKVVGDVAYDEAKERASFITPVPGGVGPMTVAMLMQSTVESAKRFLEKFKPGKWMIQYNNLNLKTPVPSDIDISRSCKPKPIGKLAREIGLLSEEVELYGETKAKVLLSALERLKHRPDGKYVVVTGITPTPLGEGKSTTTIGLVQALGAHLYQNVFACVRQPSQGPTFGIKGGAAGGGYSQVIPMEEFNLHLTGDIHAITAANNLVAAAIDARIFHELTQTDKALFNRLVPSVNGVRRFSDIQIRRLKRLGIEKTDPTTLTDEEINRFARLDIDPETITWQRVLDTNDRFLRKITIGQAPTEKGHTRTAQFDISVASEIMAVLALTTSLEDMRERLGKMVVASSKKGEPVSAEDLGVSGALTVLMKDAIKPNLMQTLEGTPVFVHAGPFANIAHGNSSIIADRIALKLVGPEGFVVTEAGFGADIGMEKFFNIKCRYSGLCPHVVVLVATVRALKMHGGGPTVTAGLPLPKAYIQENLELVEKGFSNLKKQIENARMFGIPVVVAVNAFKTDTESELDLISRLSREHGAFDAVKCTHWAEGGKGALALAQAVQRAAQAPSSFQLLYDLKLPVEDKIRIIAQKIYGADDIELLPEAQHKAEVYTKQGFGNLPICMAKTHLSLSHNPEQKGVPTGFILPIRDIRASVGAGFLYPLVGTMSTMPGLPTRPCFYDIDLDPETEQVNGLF

[4] = target: SW480 colon carcinoma cells lysate proteins (Homo sapiens, UniProt P18085); conditions: PreyGene ARF4
[5] = target: SW480 colon carcinoma cells lysate proteins (Homo sapiens, UniProt P23526); conditions: PreyGene AHCY
[6] = target: SW480 colon carcinoma cells lysate proteins (Homo sapiens, UniProt P26038); conditions: PreyGene MSN
[7] = target: SW480 colon carcinoma cells lysate proteins (Homo sapiens, UniProt P68366); conditions: PreyGene TUBA4A; SW480 cells
[8] = target: T3, SW480 colon carcinoma cells lysate proteins (Homo sapiens, UniProt Q96FQ6); conditions: PreyGene S100A16; SW480 cells
T3 sequence (Q96FQ6 1-103): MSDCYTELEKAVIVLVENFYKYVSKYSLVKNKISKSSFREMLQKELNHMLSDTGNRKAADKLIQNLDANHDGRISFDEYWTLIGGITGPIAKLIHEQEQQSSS

[9] = target: SW480 colon carcinoma cells lysate proteins (Homo sapiens, UniProt Q9NTK5); conditions: PreyGene OLA1; SW480 cells
Sequence of SW480 colon carcinoma cells lysate proteins (Homo sapiens, UniProt Q9NTK5) (Q9NTK5 whole entry): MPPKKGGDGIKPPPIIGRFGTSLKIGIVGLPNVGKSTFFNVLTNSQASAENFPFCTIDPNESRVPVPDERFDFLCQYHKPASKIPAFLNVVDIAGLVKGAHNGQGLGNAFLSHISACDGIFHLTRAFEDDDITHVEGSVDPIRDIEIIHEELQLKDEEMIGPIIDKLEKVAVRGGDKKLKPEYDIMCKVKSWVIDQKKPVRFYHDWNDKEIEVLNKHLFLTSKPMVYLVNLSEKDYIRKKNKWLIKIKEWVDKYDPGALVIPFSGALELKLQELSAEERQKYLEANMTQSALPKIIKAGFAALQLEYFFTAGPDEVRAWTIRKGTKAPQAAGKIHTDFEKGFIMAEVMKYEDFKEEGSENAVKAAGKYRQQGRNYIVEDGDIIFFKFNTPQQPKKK

Sequence of SW480 colon carcinoma cells lysate proteins (Homo sapiens, UniProt P68366) (P68366 whole entry): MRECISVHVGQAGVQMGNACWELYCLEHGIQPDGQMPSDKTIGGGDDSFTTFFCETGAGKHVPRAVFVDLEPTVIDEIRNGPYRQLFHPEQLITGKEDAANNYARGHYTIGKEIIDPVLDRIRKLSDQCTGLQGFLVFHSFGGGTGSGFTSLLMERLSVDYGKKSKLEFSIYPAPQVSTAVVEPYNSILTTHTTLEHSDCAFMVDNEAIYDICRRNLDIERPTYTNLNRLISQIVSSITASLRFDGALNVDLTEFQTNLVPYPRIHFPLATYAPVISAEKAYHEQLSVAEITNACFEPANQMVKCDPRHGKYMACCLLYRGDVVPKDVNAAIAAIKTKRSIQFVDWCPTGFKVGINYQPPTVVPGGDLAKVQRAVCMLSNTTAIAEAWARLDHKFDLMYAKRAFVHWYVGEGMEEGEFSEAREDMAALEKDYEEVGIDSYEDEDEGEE
Sequence of SW480 colon carcinoma cells lysate proteins (Homo sapiens, UniProt P18085) (P18085 whole entry): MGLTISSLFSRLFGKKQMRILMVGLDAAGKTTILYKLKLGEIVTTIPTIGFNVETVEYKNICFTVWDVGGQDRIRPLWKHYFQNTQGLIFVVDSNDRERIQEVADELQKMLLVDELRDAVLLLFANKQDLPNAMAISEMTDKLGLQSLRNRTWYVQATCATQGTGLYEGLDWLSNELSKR
Sequence of SW480 colon carcinoma cells lysate proteins (Homo sapiens, UniProt P07237) (P07237 18-508): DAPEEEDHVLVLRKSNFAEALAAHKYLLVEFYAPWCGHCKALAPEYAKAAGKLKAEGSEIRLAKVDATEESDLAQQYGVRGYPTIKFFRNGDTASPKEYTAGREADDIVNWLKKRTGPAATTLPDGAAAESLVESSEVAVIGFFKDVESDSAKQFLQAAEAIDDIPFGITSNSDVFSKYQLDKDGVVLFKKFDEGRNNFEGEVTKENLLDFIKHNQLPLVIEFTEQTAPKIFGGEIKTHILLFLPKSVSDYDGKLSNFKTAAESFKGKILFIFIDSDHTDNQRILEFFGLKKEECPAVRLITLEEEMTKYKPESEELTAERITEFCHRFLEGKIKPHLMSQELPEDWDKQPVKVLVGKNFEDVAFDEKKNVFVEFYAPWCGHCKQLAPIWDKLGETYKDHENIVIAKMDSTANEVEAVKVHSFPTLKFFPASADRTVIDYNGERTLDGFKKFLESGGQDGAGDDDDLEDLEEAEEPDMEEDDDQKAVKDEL
Sequence of SW480 colon carcinoma cells lysate proteins (Homo sapiens, UniProt P23526) (P23526 whole entry): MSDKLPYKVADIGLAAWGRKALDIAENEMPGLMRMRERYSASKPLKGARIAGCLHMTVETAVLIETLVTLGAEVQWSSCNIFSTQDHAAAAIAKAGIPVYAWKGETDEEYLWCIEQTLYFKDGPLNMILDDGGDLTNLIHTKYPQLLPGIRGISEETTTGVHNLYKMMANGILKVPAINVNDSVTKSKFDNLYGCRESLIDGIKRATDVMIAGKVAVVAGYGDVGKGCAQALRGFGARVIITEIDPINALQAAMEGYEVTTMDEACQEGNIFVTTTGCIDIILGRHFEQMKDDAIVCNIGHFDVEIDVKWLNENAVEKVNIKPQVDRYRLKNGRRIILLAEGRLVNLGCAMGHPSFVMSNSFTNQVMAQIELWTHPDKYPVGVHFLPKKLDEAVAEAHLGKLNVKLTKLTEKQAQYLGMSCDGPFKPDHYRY
Sequence of SW480 colon carcinoma cells lysate proteins (Homo sapiens, UniProt P26038) (P26038 whole entry): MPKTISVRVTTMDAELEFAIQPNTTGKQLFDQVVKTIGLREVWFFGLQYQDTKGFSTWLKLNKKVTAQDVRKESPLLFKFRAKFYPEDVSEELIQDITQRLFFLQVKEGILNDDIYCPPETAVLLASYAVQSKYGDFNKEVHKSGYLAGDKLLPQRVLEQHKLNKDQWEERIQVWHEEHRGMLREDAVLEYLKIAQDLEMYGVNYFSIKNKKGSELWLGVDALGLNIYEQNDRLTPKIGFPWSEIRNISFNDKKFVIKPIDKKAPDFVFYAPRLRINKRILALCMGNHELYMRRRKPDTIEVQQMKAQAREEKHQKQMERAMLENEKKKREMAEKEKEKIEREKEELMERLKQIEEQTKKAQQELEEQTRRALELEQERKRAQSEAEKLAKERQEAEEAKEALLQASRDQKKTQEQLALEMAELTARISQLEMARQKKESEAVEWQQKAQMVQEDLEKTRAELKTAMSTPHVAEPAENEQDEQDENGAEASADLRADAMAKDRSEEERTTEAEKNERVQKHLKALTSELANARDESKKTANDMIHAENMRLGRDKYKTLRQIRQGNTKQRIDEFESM

Which AvgP [1] does the source give for C[C@H](Oc1cc(-c2cnn(C3CCNCC3)c2)cnc1N)c1c(Cl)ccc(F)c1Cl [(5)-crizotinib] here?
Its AvgP is 0.35.

What about the “SC.Exp. 1-1” value [1] of the same molecule?
Its value is 2.

And the “SC.Exp. 1-2” value [1]?
Its value is 2.

And the “SC.Exp. 2-1” value [1]?
The value was 0.

And the “SC.Exp. 2-2” value [1]?
The value was 0.

And the “Sum (SC.Exp.)” value [1]?
Its value is 4.

What about the AvgP [2] of the same molecule?
Its AvgP is 0.3981.

And the “SC.Exp. 1-1” value [2]?
Its value is 3.

And the “SC.Exp. 1-2” value [2]?
The value was 4.

What about the “SC.Exp. 2-1” value [2] of the same molecule?
The value was 0.

And the “SC.Exp. 2-2” value [2]?
Its value is 0.

What about the “Sum (SC.Exp.)” value [2] of the same molecule?
The value was 7.

And the AvgP [3]?
The AvgP was 0.2666.

And the “SC.Exp. 1-1” value [3]?
The value was 2.

And the “SC.Exp. 1-2” value [3]?
Its value is 2.

And the “SC.Exp. 2-1” value [3]?
Its value is 0.

What about the “SC.Exp. 2-2” value [3] of the same molecule?
The value was 0.

What about the “Sum (SC.Exp.)” value [3] of the same molecule?
The value was 4.

What about the AvgP [4] of the same molecule?
Its AvgP is 0.352.

What about the “SC.Exp. 1-1” value [4] of the same molecule?
The value was 3.

And the “SC.Exp. 1-2” value [4]?
Its value is 3.

What about the “SC.Exp. 2-1” value [4] of the same molecule?
The value was 0.

And the “SC.Exp. 2-2” value [4]?
The value was 0.

And the “Sum (SC.Exp.)” value [4]?
Its value is 6.

And the AvgP [5]?
The AvgP was 0.4716.

What about the “SC.Exp. 1-1” value [5] of the same molecule?
Its value is 4.

And the “SC.Exp. 1-2” value [5]?
The value was 4.

And the “SC.Exp. 2-1” value [5]?
Its value is 0.

What about the “SC.Exp. 2-2” value [5] of the same molecule?
Its value is 0.

What about the “Sum (SC.Exp.)” value [5] of the same molecule?
The value was 8.

And the AvgP [6]?
Its AvgP is 0.2291.

And the “SC.Exp. 1-1” value [6]?
The value was 11.

And the “SC.Exp. 1-2” value [6]?
Its value is 11.

What about the “SC.Exp. 2-1” value [6] of the same molecule?
The value was 0.

And the “SC.Exp. 2-2” value [6]?
The value was 0.

What about the “Sum (SC.Exp.)” value [6] of the same molecule?
The value was 22.

And the AvgP [7]?
Its AvgP is 0.

What about the “SC.Exp. 1-1” value [7] of the same molecule?
Its value is 22.

And the “SC.Exp. 1-2” value [7]?
Its value is 20.

And the “SC.Exp. 2-1” value [7]?
Its value is 14.

And the “SC.Exp. 2-2” value [7]?
The value was 12.

What about the “SC.Exp. Sum” value [7] of the same molecule?
The value was 68.

And the AvgP [8]?
The AvgP was 0.

And the “SC.Exp. 1-1” value [8]?
The value was 1.

And the “SC.Exp. 1-2” value [8]?
Its value is 0.

What about the “SC.Exp. 2-1” value [8] of the same molecule?
Its value is 0.

What about the “SC.Exp. 2-2” value [8] of the same molecule?
Its value is 0.

What about the “SC.Exp. Sum” value [8] of the same molecule?
The value was 1.

And the AvgP [9]?
Its AvgP is 0.

What about the “SC.Exp. 1-1” value [9] of the same molecule?
The value was 1.

What about the “SC.Exp. 1-2” value [9] of the same molecule?
Its value is 1.

What about the “SC.Exp. 2-1” value [9] of the same molecule?
Its value is 0.

And the “SC.Exp. 2-2” value [9]?
Its value is 0.

What about the “SC.Exp. Sum” value [9] of the same molecule?
The value was 2.
